Test results from US20050282755A1, “Compositions having antimicrobial activity and uses thereof” (priority 2004, published 2005).
Converted amounts (≈) assume the structure as drawn. Where two headings read alike, the source gives them in different places. Non-standard residues stand in square brackets, D forms with d. Residues, ends and D or L forms follow the SMILES beside them. *: point of attachment. 1Nal = N[C@@H](Cc1cccc2ccccc12)C(=O)O; Lauroyl = CCCCCCCCCCCC(=O)*; Decanoyl = CCCCCCCCCC(=O)*; Hexanoyl = CCCCCC(=O)*

Tests used:
Format in all cases: cell-based
[1] = tested on: Propionibacterium acnes ATCC 6919; assay: MIC, agar dilution method NCCLS M11-A6, Brucella agar, anaerobic (Table 9, superscript c); conditions: ATCC 6919
Protocol: A bacterial suspension was prepared to allow for a final inoculum on the plate of 1.5×10^8 CFU/milliliter. After the suspension absorbed into the agar surface, the plates were incubated for 48-96 hours at 37° C. in a GasPak anaerobic chamber. The lowest concentration of peptide that contained no colony growth on the agar plate was determined as the MIC. MIC values that utilized this method of MIC determination are indicated in Table 9 with a superscript letter “c.”

[2] = tested on: Staphylococcus aureus ATCC 29213; assay: MIC, NCCLS M7-A6 broth microdilution, cation-adjusted Mueller Hinton broth (Table 9, no superscript)
Procedure, shortened: (§1)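 MIC, read as the lowest peptide concentration without visible growth compared with peptide-free wells, after overnight incubation at 37° C. Wells held cation-adjusted Mueller Hinton broth and a final inoculum of 5×10^5 to 1×10^6 CFU/mL from log-phase culture.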

Salmonella dublin (Lane) = assay: MIC, NCCLS M7-A6 broth microdilution (Table 9, no superscript)
Procedure, shortened: as §1

[3] = tested on: Staphylococcus epidermidis ATCC 12228; assay: as above
Procedure, shortened: as §1

[4] = tested on: Pseudomonas aeruginosa ATCC 27853; assay: as above
Procedure, shortened: as §1

[5] = tested on: Escherichia coli ATCC 25922; assay: as above
Procedure, shortened: as §1

[6] = tested on: Candida albicans ATCC 18804; assay: MIC in yeasts, NCCLS M27-A2 broth microdilution, RPMI 1640 (Table 9, letter e)
Protocol: Briefly, RPMI 1640 supplemented with glutamine and phenol red as a pH indicator was used in the broth microdilution method. A 96-well plate was inoculated so that the final inoculum of yeast for each well contained between 0.5×10^3 and 2.5×10^3 CFU/milliliter. […] Plates were incubated for 24 to 48 hours at 37° C. The lowest concentration of peptide that contained no visible growth was determined as the MIC. MIC values that utilized this method of MIC determination are indicated in Table 9 with a subscript letter “e.” “Peptide Number” corresponds to peptide compositions and corresponding designations in Table 3.

[7] = no superscript: NCCLS M7-A6 broth microdilution

Row | Compound | MIC P. acnes [1] | MIC S. aureus ([2]; ATCC 29213) [µg/mL] | MIC S. dublin (Salmonella dublin (Lane)) [µg/mL] | MIC S. epidermidis ([3]; ATCC 12228) [µg/mL] | MIC P. aeruginosa ([4]; ATCC 27853) [µg/mL] | MIC E. coli ([5]; ATCC 25922) [µg/mL] | MIC C. albicans ([6]; ATCC 18804) [e ug/mL] | MIC S. aureus [2, 7] [µg/mL] | MIC C. albicans ([6]; letter e: NCCLS M27-A2 broth microdilution, RPMI 1640) [e ug/mL] | MIC S. dublin (Salmonella dublin (Lane); [7]) [µg/mL] | MIC S. epidermidis [3, 7] [µg/mL] | MIC P. aeruginosa [4, 7] [µg/mL] | MIC E. coli [5, 7] [µg/mL]
1 | CCCCCCCCCCCC(=O)N[C@@H](C(=O)N[C@H](CCCNC(=N)N)C(=O)N[C@@H](C(=O)N[C@H](CO)C(=O)N[C@H](CCCNC(=N)N)C(=O)N[C@@H](C(=O)NCC(=O)N[C@H](CCCNC(=N)N)C(=O)N[C@H](CO)C(=O)N[C@H](CCCNC(=N)N)C(=O)N[C@H](Cc1c[nH]c2ccccc12)C(=O)N[C@H](CCCNC(=N)N)C(=O)N[C@H](CC(=O)O)C(=O)N[C@H](Cc1c[nH]c2ccccc12)C(=O)N[C@H](CO)C(=O)N[C@H](CCCNC(=N)N)C(=O)N[C@H](CC(N)=O)C(=O)N[C@H](Cc1ccccc1)C(=O)N[C@H](CCSC)C(=O)N[C@H](CCCNC(=N)N)C(=O)N[C@H](C)C(=O)N[C@H](C)C(=O)N[C@@H](CCCCN)C(N)=O)[C@H](C)O)C(C)C)[C@H](C)O [Peptide 80, Lauryl-trvsrtgrsrwrdwsrnfmraaK-NH2] (Lauroyl-[dT][dR][dV][dS][dR][dT]G[dR][dS][dR][dW][dR][dD][dW][dS][dR][dN][dF][dM][dR][dA][dA]K-NH2) | >64c ug/mL | 16 (≈ 5.22 µM) | 16 (≈ 5.22 µM) | 2 (≈ 0.653 µM) | >64 | 32 (≈ 10.4 µM) |  |  |  |  |  |  | 
2 | CCCCCCCCCCCC(=O)N[C@@H](CCCNC(=N)N)C(=O)N[C@@H](Cc1c[nH]c2ccccc12)C(=O)N[C@@H](CCCNC(=N)N)C(=O)N[C@@H](CC(=O)O)C(=O)N[C@H](C(=O)N[C@@H](C)C(=O)N[C@@H](CCCNC(=N)N)C(N)=O)C(C)C [Peptide 105, Lauryl-RWRDVAR-NH2] (Lauroyl-RWRDVAR-NH2) | 32c ug/mL | 16 (≈ 14 µM) | >32 | 8 (≈ 7.02 µM) | 32 (≈ 28.1 µM) | 32 (≈ 28.1 µM) |  |  |  |  |  |  | 
3 | CCCCCCCCCCCC(=O)N[C@@H](Cc1c[nH]c2ccccc12)C(=O)N[C@@H](CCCNC(=N)N)C(=O)N[C@@H](CC(=O)O)C(=O)N[C@H](C(=O)N[C@@H](C)C(=O)N[C@@H](CCCNC(=N)N)C(=O)N[C@@H](CC(N)=O)C(N)=O)C(C)C [Peptide 106, Lauryl-WRDVARN-NH2] (Lauroyl-WRDVARN-NH2) | >64c ug/mL | 8 (≈ 7.29 µM) | >64 | 16 (≈ 14.6 µM) | >64 | >64 |  |  |  |  |  |  | 
4 | CCCCCCCCCCCC(=O)N[C@@H](CCCNC(=N)N)C(=O)N[C@@H](Cc1c[nH]c2ccccc12)C(=O)N[C@@H](CCCNC(=N)N)C(=O)N[C@@H](CC(=O)O)C(=O)N[C@H](C(=O)N[C@@H](C)C(=O)N[C@@H](CCCNC(=N)N)C(=O)N[C@@H](CC(N)=O)C(=O)N[C@@H](Cc1ccccc1)C(=O)N[C@@H](CCSC)C(=O)N[C@@H](CCCNC(=N)N)C(N)=O)C(C)C [Peptide 113, Lauryl-RWRDVARNFMR-NH2] (Lauroyl-RWRDVARNFMR-NH2) | >64c ug/mL | 4 (≈ 2.37 µM) | 16 (≈ 9.48 µM) | 2 (≈ 1.18 µM) | >64 | 8 (≈ 4.74 µM) |  |  |  |  |  |  | 
5 | CCCCCCCCCCCC(=O)N[C@@H](CCCNC(=N)N)C(=O)N[C@@H](CO)C(=O)N[C@@H](CCCNC(=N)N)C(=O)N[C@@H](Cc1c[nH]c2ccccc12)C(=O)N[C@@H](CCCNC(=N)N)C(=O)N[C@@H](CC(=O)O)C(=O)N[C@@H](Cc1c[nH]c2ccccc12)C(=O)N[C@@H](Cc1c[nH]c2ccccc12)C(=O)N[C@@H](CCCNC(=N)N)C(=O)N[C@@H](CC(N)=O)C(=O)N[C@@H](Cc1c[nH]c2ccccc12)C(=O)N[C@@H](CCSC)C(=O)N[C@@H](CCCNC(=N)N)C(N)=O [Peptide 147, Lauryl-RSRWRDWWRNWMR-NH2] (Lauroyl-RSRWRDWWRNWMR-NH2) |  | 64 (≈ 29.5 µM) | 64 (≈ 29.5 µM) | 2 (≈ 0.921 µM) | >64 | 64 (≈ 29.5 µM) | 2 |  |  |  |  |  | 
6 | CCCCCCCCCCCC(=O)N[C@@H](CCCNC(=N)N)C(=O)N[C@@H](CO)C(=O)N[C@@H](CCCNC(=N)N)C(=O)N[C@@H](Cc1c[nH]c2ccccc12)C(=O)N[C@@H](CCCNC(=N)N)C(=O)N[C@@H](CC(=O)O)C(=O)N[C@@H](Cc1c[nH]c2ccccc12)C(=O)N[C@@H](Cc1c[nH]c2ccccc12)C(=O)N[C@@H](CCCNC(=N)N)C(=O)N[C@@H](CC(N)=O)C(=O)N[C@@H](Cc1c[nH]c2ccccc12)C(=O)N[C@@H](CCSC)C(=O)N[C@@H](CCCNC(=N)N)C(=O)N[C@@H](CC(C)C)C(=O)N[C@@H](CC(C)C)C(N)=O [Peptide 148, Lauryl-RSRWRDWWRNWMRLL-NH2] (Lauroyl-RSRWRDWWRNWMRLL-NH2) |  | >64 | >64 | >64 | >64 | >64 | 4 |  |  |  |  |  | 
7 | CCCCCCCCCCCC(=O)N[C@@H](CCCNC(=N)N)C(=O)N[C@@H](CO)C(=O)N[C@@H](CCCNC(=N)N)C(=O)N[C@@H](Cc1cccc2ccccc12)C(=O)N[C@@H](CCCNC(=N)N)C(=O)N[C@@H](CC(=O)O)C(=O)N[C@H](C(=O)N[C@@H](C)C(=O)N[C@@H](CCCNC(=N)N)C(=O)N[C@@H](CC(N)=O)C(=O)N[C@@H](Cc1ccccc1)C(=O)N[C@@H](CCSC)C(=O)N[C@@H](CCCNC(=N)N)C(N)=O)C(C)C [Peptide 149, Lauryl-RSRZRDVARNFMR-NH2 Z = 1-naphthylalanine] (Lauroyl-RSR[1Nal]RDVARNFMR-NH2) | 32c ug/mL | 16 (≈ 8.24 µM) | 32 (≈ 16.5 µM) | 4 (≈ 2.06 µM) | >64 | 64 (≈ 32.9 µM) |  |  |  |  |  |  | 
8 | CCCCCCCCCCCC(=O)N[C@@H](CCCNC(=N)N)C(=O)N[C@@H](CO)C(=O)N[C@@H](CCCNC(=N)N)C(=O)N[C@@H](Cc1c[nH]c2ccccc12)C(=O)N[C@@H](CCCNC(=N)N)C(=O)N[C@@H](CC(=O)O)C(=O)N[C@@H](Cc1cccc2ccccc12)C(=O)N[C@@H](C)C(=O)N[C@@H](CCCNC(=N)N)C(=O)N[C@@H](CC(N)=O)C(=O)N[C@@H](Cc1ccccc1)C(=O)N[C@@H](CCSC)C(=O)N[C@@H](CCCNC(=N)N)C(N)=O [Peptide 150, Lauryl-RSRWRDZARNFMR-NH2 Z = 1-naphthylalanine] (Lauroyl-RSRWRD[1Nal]ARNFMR-NH2) | >64c ug/mL | 8 (≈ 3.94 µM) | 32 (≈ 15.8 µM) | 4 (≈ 1.97 µM) | >64 | 64 (≈ 31.5 µM) |  |  |  |  |  |  | 
9 | CCCCCCCCCCCC(=O)N[C@@H](CCCNC(=N)N)C(=O)N[C@@H](Cc1c[nH]c2ccccc12)C(=O)N[C@@H](CCCNC(=N)N)C(=O)N[C@@H](CC(=O)O)C(=O)N[C@H](C(=O)N[C@@H](C)C(=O)N[C@@H](CCCNC(=N)N)C(=O)N[C@@H](CC(N)=O)C(=O)N[C@@H](Cc1ccccc1)C(=O)N[C@@H](CC(C)C)C(=O)N[C@@H](CCCNC(=N)N)C(N)=O)C(C)C [Peptide 163, Lauryl-RWRDVARNFLR-NH2] (Lauroyl-RWRDVARNFLR-NH2) | >64c ug/mL | 4 (≈ 2.4 µM) | 8 (≈ 4.79 µM) | 8 (≈ 4.79 µM) | >64 | 16 (≈ 9.58 µM) |  |  |  |  |  |  | 
10 | CCCCCCCCCC(=O)N[C@H](CCCNC(=N)N)C(=O)N[C@H](CO)C(=O)N[C@H](CCCNC(=N)N)C(=O)N[C@H](Cc1c[nH]c2ccccc12)C(=O)N[C@H](CCCNC(=N)N)C(=O)N[C@H](CC(=O)O)C(=O)N[C@@H](C(=O)N[C@H](C)C(=O)N[C@H](CCCNC(=N)N)C(=O)N[C@H](CC(N)=O)C(=O)N[C@H](Cc1ccccc1)C(=O)N[C@H](CC(C)C)C(=O)N[C@H](CCCNC(=N)N)C(N)=O)C(C)C [Peptide 190, Decanyl-rsrwrdvarnflr-NH2] (Decanoyl-[dR][dS][dR][dW][dR][dD][dV][dA][dR][dN][dF][dL][dR]-NH2) | 4 µg/mL (≈ 2.12 µM) | 8 (≈ 4.24 µM) |  | 2 (≈ 1.06 µM) | 8 (≈ 4.24 µM) | 4 (≈ 2.12 µM) |  |  |  |  |  |  | 
11 | CCCCCC(=O)N[C@@H](CCCNC(=N)N)C(=O)N[C@@H](CO)C(=O)N[C@@H](CCCNC(=N)N)C(=O)N[C@@H](Cc1c[nH]c2ccccc12)C(=O)N[C@@H](CCCNC(=N)N)C(=O)N[C@@H](CC(=O)O)C(=O)N[C@H](C(=O)N[C@@H](C)C(=O)N[C@@H](CCCNC(=N)N)C(=O)N[C@@H](CC(N)=O)C(=O)N[C@@H](Cc1ccccc1)C(=O)N[C@@H](CCSC)C(=O)N[C@@H](CCCNC(=N)N)C(N)=O)C(C)C [Peptide 202, Hexyl-RSRWRDVARNFMR-NH2] (Hexanoyl-RSRWRDVARNFMR-NH2) | >64c ug/mL | >64 | >64 |  |  |  |  |  |  |  |  |  | 
12 | Lauryl-dvarfm-NH2 [Peptide 125] |  |  |  |  |  |  |  | >64 | >64 | >64 | >64 | >64 | >64
13 | Lauryl-rsrwrdvarfm-NH2 [Peptide 115] | 4c ug/mL |  |  |  |  |  |  |  |  |  |  |  | 
